Experimental findings from publication PMC10726347, “Discovery of Inhibitory Fragments That Selectively Target Spire2–FMN2 Interaction” (Journal of Medicinal Chemistry, 2023) are described below.

Where two headings read alike, the source gives them in different places.

Test [1] concerns the target T1, KIND1 (Homo sapiens, UniProt Q08AE8).
T1 construct: His6 (N, cleaved yes); made in house; host or cells: E. coli BL21 (DE3)
The experiment in a line: FP competition assay with FITC-labeled FSI peptide, KIND1. In kind it is binding. The conditions noted are these: 2.44-2500 μM, 1.17 μM KIND1. On the procedure:
(§1) The probe was diluted in the buffer assay (25 mM Tris, pH 7.8, 100 mM NaCl, 2 mM DTT) and added to the preplated mixtures of protein/fragment solutions. […] Each experiment was performed in triplicate with four technical replications.
(§2) Establishment of fluorescence polarization assay
(§3) The establishment of the fluorescence polarization assay was done according to protocols […]
(§4) In the first step, the affinity of the fluorescently labelled reporter peptide (FSI-peptide, FITC- […]
(§5) concentrations of KIND1 or KIND2 domains. This yielded dose-response curves that allow us to calculate the Kd of FSI-peptide.
(§6) In the next step, the working concentration of the proteins was calculated. Typically, the concentration should be in a dynamic range (0.5-0.8). For calculations, the following equation f0 = (P − Pmin)/(Pmax − Pmin)
(§7) P – fluorescence polarization in the dynamic range (0.5 -0.8) , Pmin – average minimal fluorescence polarization, Pmax – average maximal fluorescence polarization,
(§8) Taking into account Kd values for the reporter peptide, the working concentration of the proteins were calculated as follows:
(§9) c = Kd(P − Pmin)/(Pmax − P) […]

Test [2] concerns the target T1, KIND1. Nature of the test: Binding to KIND1 (method not given).
In test [3] the target is T1, KIND1. The experiment in a line: Differential scanning fluorimetry (DSF) thermal shift, KIND1. Type of test: binding. The following applies: 1 mM fragment, 2% DMSO.
The target of test [4] is T2, KIND2 (Homo sapiens, UniProt Q8WWL2).
T2 sequence (Q8WWL2 18-207): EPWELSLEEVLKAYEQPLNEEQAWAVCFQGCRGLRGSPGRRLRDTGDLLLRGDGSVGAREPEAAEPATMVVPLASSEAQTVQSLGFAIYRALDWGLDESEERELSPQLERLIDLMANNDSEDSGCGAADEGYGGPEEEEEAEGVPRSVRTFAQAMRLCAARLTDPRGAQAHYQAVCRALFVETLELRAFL
Nature of the test: Differential scanning fluorimetry (DSF) thermal shift, KIND2. In general terms: In DSF a fluorescence change marks the thermal transition of the protein.
Description: Fragments were screened as singletons at a final concentration of 1 mM (2% DMSO). […] As hit criteria, we arbitrarily set values of positive and negative thermal shift for +0.8 and −2.0 °C, respectively.
Thermal melting experiments were carried out using a CFX96TM real-time PCR machine (BioRad). Protein thermal unfolding was monitored by the increase in the fluorescence of the SYPRO Orange dye (Sigma-Aldrich). […] The KIND1 or KIND2 were prepared in the storage buffer as 50 μM stock solutions. Ten μL of protein was then mixed with 2 μL of SYPRO Orange 45× and 10 μL of the 4 mM solution of tested compounds or 10 μL of the 8% DMSO solution in the protein storage buffer. The resulting mixture was finally buffered with 18 μL of protein storage buffer. […] Raw data files with temperatures and their corresponding fluorescence values (or first derivative of the fluorescence – dF/dT) were exported to Microsoft Office Excel, where melting temperatures Tm were calculated from the lowest point of the first derivative plot. The visualization of melting curves was performed with GraphPad Prism software. Thermal shift values (ΔTm) were obtained through subtraction of the unfolding temperature of the KIND1 or KIND2 in the presence of 2% (vol/vol) DMSO (TmDMSO) from the unfolding temperatures of the KIND1 or KIND2 in the presence of fragment (Tmfrag) [drawing 2]

The target of test [5] is T2, KIND2. The experiment in a line: FP competition assay with FITC-labeled FSI peptide, KIND2. In kind it is binding. Also noted: His6 (N, cleaved yes); made in house; host or cells: E. coli BL21 (DE3). The following applies: for KIND2/FSI inhibitory activity in words: FP assay; for IC50: FP competition. How it is done:
as §1, §2, §3, §4, §5, §6, §7, §8, §9

[6] abbreviates: 2.44-2500 μM, 2.49 μM KIND2, read-out: KIND2 IC50.

T1 sequence (Q08AE8 36-236): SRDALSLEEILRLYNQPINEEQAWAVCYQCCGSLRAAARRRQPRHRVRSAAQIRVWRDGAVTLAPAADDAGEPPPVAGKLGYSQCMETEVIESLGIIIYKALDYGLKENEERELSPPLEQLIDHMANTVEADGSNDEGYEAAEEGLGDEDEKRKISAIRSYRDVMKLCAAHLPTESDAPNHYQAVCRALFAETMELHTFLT

A word on the IC50: it is the midpoint of a concentration-inhibition curve. Turning to `NCCNc1ccnc2cc(Cl)ccc12` [F408, N^1-(7-Chloroquinolin-4-yl)ethane-1,2-diamine], the IC50 on KIND1 [1] is over 2500 µM. The “binding to KIND1” value on KIND1 [2] is reported as “did not bind”.

In turn, `NCCCNc1ccnc2cc(Cl)ccc12` [F409] gave a half-maximal inhibitory concentration (IC50) at KIND1 [1] of over 2500 µM.

As usually defined, the ΔTm is the change in melting temperature against a reference sample. `OCCCNc1ccnc2cc(Cl)ccc12` [F410]: the ΔTm at 1000 µM is -0.4 °C on KIND1 [3] and -0.5 °C at KIND2 [4] (read-out: KIND2 ΔTm). The IC50 at KIND1 [1] and at KIND2 [5] (setting [6]) was over 2500 µM throughout. Also, at KIND2 [5], the “KIND2/FSI inhibitory activity in words” value is on record as “complete loss in activity”.

The compound `CN(C)CCCNc1ccnc2cc(Cl)ccc12` [F666] showed an IC50 on KIND1 [1] of over 2500 µM.

As to `NCCCCNc1ccnc2cc(Cl)ccc12` [F667], the IC50 on KIND1 [1] was over 2500 µM.

For `Nc1ccnc2cc(Cl)ccc12` [F668], the ΔTm at 1000 µM was -0.4 °C at KIND1 [3] and -1 °C on KIND2 [4] (read-out: KIND2 ΔTm). Moreover, the IC50 at KIND1 [1] and at KIND2 [5] (setting [6]) was over 2500 µM each time.

In the case of `Clc1ccc2c(NCCCN3CCOCC3)ccnc2c1` [F669], the results for the shift in melting temperature (ΔTm) at 1000 µM on KIND1 [3] and on KIND2 [4] (read-out: KIND2 ΔTm) were -0.5 °C and -1 °C, respectively. Moreover, the concentration for half-maximal inhibition (IC50) at KIND1 [1] and on KIND2 [5] (setting [6]) was over 2500 µM throughout. Besides, the “KIND2/FSI inhibitory activity in words” value at KIND2 [5] is “complete drop in potency”.

Consider `Clc1ccc2c(N3CCNCC3)ccnc2c1` [F671], for which the values for the ΔTm at 1000 µM at KIND1 [3] and at KIND2 [4] (read-out: KIND2 ΔTm) were -1 °C and -2 °C, respectively. In addition, the IC50 at KIND1 [1] and on KIND2 [5] (setting [6]) was over 2500 µM each time. In addition, the “KIND2/FSI inhibitory activity in words” value on KIND2 [5] is listed as “complete drop in potency”.

Regarding `OCCNc1ccnc2cc(Cl)ccc12` [compound 1, 2-((7-Chloroquinolin-4-yl)amino)ethan-1-ol], the IC50 on KIND1 [1] and at KIND2 [5] (setting [6]) was over 2500 µM throughout.

On to `CN(C)CCNc1ccnc2cc(Cl)ccc12` [compound 2, N^1-(7-Chloroquinolin-4-yl)-N^2,N^2-dimethylethane-1,2-diamine], for which the IC50 on KIND1 [1] and on KIND2 [5] (setting [6]) was over 2500 µM throughout. Moreover, the “KIND2/FSI inhibitory activity in words” value at KIND2 [5] is “loss of potency”.

In the case of `N[C@H]1CCN(c2ccnc3cc(Cl)ccc23)C1` [compound 3, (S)-1-(7-Chloroquinolin-4-yl)pyrrolidin-3-amine], the IC50 at KIND1 [1] and on KIND2 [5] (setting [6]) was over 2500 µM each time.

Take `N[C@@H]1CCN(c2ccnc3cc(Cl)ccc23)C1` [compound 4, (R)-1-(7-Chloroquinolin-4-yl)pyrrolidin-3-amine]: the 50% inhibitory concentration (IC50) on KIND1 [1] and on KIND2 [5] (setting [6]) was over 2500 µM each time.

`N[C@H]1CCCN(c2ccnc3cc(Cl)ccc23)C1` [compound 5, (3S)-1-(7-Chloroquinolin-4-yl)piperidin-3-amine]: the IC50 on KIND1 [1] and at KIND2 [5] (setting [6]) was over 2500 µM throughout.

Take `N[C@@H]1CCCN(c2ccnc3cc(Cl)ccc23)C1` [compound 6, (3R)-1-(7-Chloroquinolin-4-yl)piperidin-3-amine]: the IC50 on KIND1 [1] and at KIND2 [5] (setting [6]) was over 2500 µM in each case.

In the case of `Clc1ccc2c(N[C@H]3CCCNC3)ccnc2c1` [compound 7, (S)-7-Chloro-N-(piperidin-3-yl)quinolin-4-amine], the IC50 on KIND1 [1] and on KIND2 [5] (setting [6]) was over 2500 µM each time.

Take `Clc1ccc2c(N[C@@H]3CCCNC3)ccnc2c1` [compound 8, (R)-7-Chloro-N-(piperidin-3-yl)quinolin-4-amine]: the half-maximal inhibitory concentration (IC50) at KIND1 [1] and on KIND2 [5] (setting [6]) was over 2500 µM each time.

`NCCNc1ccnc2cc(C(F)(F)F)ccc12` [compound 9, N^1-(7-(Trifluoromethyl)quinolin-4-yl)ethane-1,2-diamine]: the shift in melting temperature (ΔTm) at 1000 µM on KIND2 [4] (read-out: ΔTm) is -0.4 °C. For the same compound, the IC50 on KIND2 [5] (Table 2, KIND2, read-out: IC50) is over 2500 µM.

Take `Cc1ccc2c(NCCN)ccnc2c1` [compound 10, N^1-(7-Methylquinolin-4-yl)ethane-1,2-diamine]: the ΔTm at 1000 µM on KIND2 [4] (read-out: ΔTm) was 2 °C. Besides, the IC50 on KIND2 [5] (Table 2, KIND2, read-out: IC50) is over 2500 µM.

In the case of `NCCNc1ccnc2cc(Br)ccc12` [compound 11, N^1-(7-Bromoquinolin-4-yl)ethane-1,2-diamine], the ΔTm at 1000 µM at KIND2 [4] (read-out: ΔTm) was found to be 1.2 °C. The IC50 at KIND2 [5] (Table 2, KIND2, read-out: IC50) is over 2500 µM.

For `NCCNc1ccnc2cc(Oc3ccccc3)ccc12` [compound 15, N^1-(7-Phenoxyquinolin-4-yl)ethane-1,2-diamine], the ΔTm at 1000 µM on KIND2 [4] (read-out: ΔTm) is -0.1 °C. Besides, at KIND2 [5] (Table 2, KIND2, read-out: IC50), the IC50 was over 2500 µM.

With `NCCNc1ccnc2cc(OCc3ccccc3)ccc12` [compound 16, N^1-[7-(Benzyloxy)quinolin-4-yl]ethane-1,2-diamine], at KIND2 [4] (read-out: ΔTm), the ΔTm at 1000 µM came to 0 °C. Further, at KIND2 [5] (Table 2, KIND2, read-out: IC50), the 50% inhibitory concentration (IC50) was over 2500 µM.

Consider `NCCNc1ccnc2c(Cl)cccc12` [compound 17, N^1-(8-Chloroquinolin-4-yl)ethane-1,2-diamine], for which, on KIND2 [4] (read-out: ΔTm), the ΔTm at 1000 µM is 0.8 °C. For the same compound, the “KIND2/FSI inhibitory activity in words” value at KIND2 [5] is “complete loss of activity”. Also, the IC50 at KIND2 [5] (Table 2, KIND2, read-out: IC50) is over 2500 µM.

As for `NCCNc1ccnc2c(F)cccc12` [compound 18, N^1-(8-Fluoroquinolin-4-yl)ethane-1,2-diamine], the ΔTm at 1000 µM at KIND2 [4] (read-out: ΔTm) came to 0.8 °C. Moreover, on KIND2 [5], the “KIND2/FSI inhibitory activity in words” value was “complete loss of activity”. Also, the IC50 at KIND2 [5] (Table 2, KIND2, read-out: IC50) is over 2500 µM.
